These results are taken from patent US11613531B2, “Inhibitors of RHO associated coiled-coil containing protein kinase” (Kadmon Corporation, LLC, priority 2017, dated 2023).

As a reminder, the IC50 is the concentration that gives 50% inhibition.

Test [1] addresses Recombinant ROCK2 (amino acids 1-552) (Homo sapiens (Human), UniProt O75116). The test can be described thus: Z′-Lyte kinase assay, ROCK2. In kind it is biochemical. The following applies: for inhibition at 3 µM: 3 μM compound; for inhibition at 0.5 µM: 0.5 μM compound. The gist of the method: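 IC50s derive from nonlinear curve fits over a 9-point, 2-fold dilution series, with single-point inhibition at 1 μM expressed relative to DMSO. Activity of truncated human ROCK1 (residues 1-535) and ROCK2 (residues 1-552) measured with the Z′-Lyte kinase format.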

The target in test [2] is Recombinant ROCK1 (amino acids 1-535) (Homo sapiens (Human), UniProt Q13464). The test can be described thus: Z′-Lyte kinase assay, ROCK1. In kind it is biochemical. The following applies: for inhibition at 3 µM: 3 μM compound; for inhibition at 3 µM / inhibition at 0.5 µM: read-out: ROCK1 % inh. @ [conc]; for inhibition at 0.5 µM: 0.5 μM compound. As for the experimental part: Determination of Compound's ROCK Inhibitory Activity In Vitro (Z'Lyte Assay).
Recombinant ROCK1 (amino acids 1-535), sequence (Q13464 1-535): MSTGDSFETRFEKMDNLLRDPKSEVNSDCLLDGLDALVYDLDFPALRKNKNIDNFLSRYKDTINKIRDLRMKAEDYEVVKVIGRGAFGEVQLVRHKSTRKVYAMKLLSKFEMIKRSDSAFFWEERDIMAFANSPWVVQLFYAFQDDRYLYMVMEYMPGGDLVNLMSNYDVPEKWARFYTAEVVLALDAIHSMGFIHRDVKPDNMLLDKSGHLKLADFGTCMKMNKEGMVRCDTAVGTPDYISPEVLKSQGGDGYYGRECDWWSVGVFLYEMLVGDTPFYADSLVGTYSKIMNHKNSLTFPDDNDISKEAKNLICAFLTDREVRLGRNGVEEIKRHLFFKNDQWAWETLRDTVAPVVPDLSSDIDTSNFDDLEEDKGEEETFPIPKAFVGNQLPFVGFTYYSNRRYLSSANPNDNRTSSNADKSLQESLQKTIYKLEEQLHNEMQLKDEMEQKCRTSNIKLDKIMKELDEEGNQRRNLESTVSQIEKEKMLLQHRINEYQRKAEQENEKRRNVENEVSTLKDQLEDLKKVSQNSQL
Recombinant ROCK1 (amino acids 1-535) and ROCK2 (amino acids 1-552) proteins were purchased from ThermoFisher Scientific. Compound's activities were measured by Z′-lyte kinase kit (ThermoFisher Scientific) and IC50 was calculated
In vitro activities for the compounds were measured with Z′-lyte kinase kit (ThermoFisher Scientific). The percent inhibition rate was calculated by normalizing the kinase activity value obtained with 1 μM compound treatment against DMSO control value and then applied to the formula, [1-(compound/DMSO)]×100%. IC50s were calculated using the nonlinear regression curve fit function of the GraphPad Prism software with kinase activities data measured with 9 points 2-fold serial dilution of compounds treatment. In cell pMLC IC50s were calculated with data obtained from A7R5 cell experiments. A7R5 cells were treated with 9 points 2-fold serial dilution of compounds and ppMlc (T18/S19) levels were determined to calculate cellular IC50 values of the compounds using the nonlinear regression curve fit function of the GraphPad Prism software. NIH3T3 cells stably expressing ACTA2-promoter-driven-luciferase were applied to measure ROCK compounds functional IC50s in cells. Cells were plated in 96 well plates to confluence and treated with 9 points serial dilution of compounds in combination with TGFβ1 for 24 hr. Luciferase activities were measured and compound's IC50s were calculated using the nonlinear regression curve fit function of the GraphPad Prism software.

For test [3], the system named is ppMlc (T18/S19) levels in A7R5 cells. In words: A7R5 in-cell ELISA (pMLC). The following applies: Rattus norvegicus, A7R5, A7R5 cells; for inhibition at 10 µM: 10 μM compound. The format is cell-based, Rat. The gist of the method: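 Cellular IC50 came from a nonlinear regression fit of ppMlc (T18/S19) signal, read by colorimetric in-cell ELISA on fixed cells. Rat A7R5 aortic smooth muscle cells had been exposed for 90 min to compounds in 9-point 2-fold serial dilution, 24 h after seeding.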
A general note: An ELISA detects its analyte on a solid surface through an enzyme-linked reagent.

The mark [4] stands for this setting: read-out: ROCK2 % inh. @ [conc].
The mark [5] stands for this setting: 9 points 2-fold serial dilution.
Where [6] appears, read: read-out: pMLC % inh A7R5 @ [conc].

Structures are written as SMILES. Where two headings read alike, the source gives them in different places.

Recombinant ROCK2 (amino acids 1-552), sequence (O75116 1-552): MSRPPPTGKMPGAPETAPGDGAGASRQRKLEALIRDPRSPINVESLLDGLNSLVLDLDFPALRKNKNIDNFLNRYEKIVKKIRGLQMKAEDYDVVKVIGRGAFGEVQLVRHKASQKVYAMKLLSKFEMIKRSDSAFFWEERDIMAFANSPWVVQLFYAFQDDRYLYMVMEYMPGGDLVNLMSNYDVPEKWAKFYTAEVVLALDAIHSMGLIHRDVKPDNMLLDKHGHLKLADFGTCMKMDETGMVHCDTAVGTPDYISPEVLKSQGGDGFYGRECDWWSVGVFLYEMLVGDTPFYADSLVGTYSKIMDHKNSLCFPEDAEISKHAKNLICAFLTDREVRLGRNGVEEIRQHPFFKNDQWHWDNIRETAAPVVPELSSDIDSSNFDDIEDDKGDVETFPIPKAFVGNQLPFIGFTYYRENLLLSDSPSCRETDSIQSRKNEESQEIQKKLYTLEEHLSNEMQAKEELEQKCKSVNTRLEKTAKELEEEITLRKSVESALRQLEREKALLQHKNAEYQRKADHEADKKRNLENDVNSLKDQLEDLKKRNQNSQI

Turning to `Cc1cc(Nc2ccc3[nH]ncc3c2)nc(N2CCCNCC2)n1` [Example 5, N-(2-(1,4-diazepan-1-yl)-6-methylpyrimidin-4-yl)-1H-indazol-5-amine], the inhibition at 3 µM came to 102% in test [1] (setting [4]) and 98.3% in test [2]. Besides, the values for the IC50 in test [1] (setting [5]) and in test [3] (ppMlc (T18/S19)) were 54 nM and 63 nM, respectively. Moreover, the inhibition at 10 µM in test [3] (setting [6]) stood at 86%.

With `COc1cnc(N2CCCNCC2)nc1Nc1ccc2[nH]ncc2c1` [Example 7, N-(2-(1,4-diazepan-1-yl)-5-methoxypyrimidin-4-yl)-1H-indazol-5-amine], the inhibition at 1 µM in test [1] (1 μM compound, read-out: ROCK2 % inh. @ [conc]) worked out at 96%. The IC50 in test [1] (setting [5]) came to 107 nM; in test [2] (setting [5]), 65 nM; in test [3] (ppMlc (T18/S19)), 460 nM. Further, in test [3] (setting [6]), the inhibition at 10 µM was 98.3%.

Take `c1cc2nc(N3CCCNCC3)nc(Nc3ccc4[nH]ncc4c3)c2s1` [Example 10, 2-(1,4-diazepan-1-yl)-N-(1H-indazol-5-yl)thieno[3,2-d]pyrimidin-4-amine]: the inhibition at 0.5 µM in test [1] (setting [4]) came to 98%; in test [2], 94%. Moreover, the IC50 came to 20 nM in test [1] (setting [5]) and 565 nM in test [3] (ppMlc (T18/S19)). In addition, in test [3] (setting [6]), the inhibition at 10 µM came out at 90%.

Turning to `c1cc2[nH]ncc2cc1Nc1nc(N2CCCNCC2)nc2c1COC2` [Example 11, 2-(1,4-diazepan-1-yl)-N-(1H-indazol-5-yl)-5,7-dihydrofuro[3,4-d]pyrimidin-4-amine], the inhibition at 0.5 µM in test [1] (setting [4]) is 93%; in test [2] it was 76%. The IC50 in test [1] (setting [5]) came to 31 nM; in test [3] (ppMlc (T18/S19)), 1120 nM. In test [3] (setting [6]), the inhibition at 10 µM is 89%.

With `c1ccc(C2CN(c3nccc(Nc4ccc(-c5ccncc5)cc4)n3)CCCN2)cc1` (stereo not drawn) [Example 18, 2-(3-phenyl-1,4-diazepan-1-yl)-N-(4-(pyridin-4-yl)phenyl)pyrimidin-4-amine], the IC50 in test [1] (setting [5]) was 206 nM; in test [2] (setting [5]), 332 nM. Moreover, the inhibition at 10 µM in test [3] (setting [6]) worked out at 11%.

Turning to `c1cc(Nc2ccc3[nH]ncc3c2)nc(N2CCNCC2)n1` [Example 34, N-(2-(piperazin-1-yl)pyrimidin-4-yl)-1H-indazol-5-amine], the IC50 in test [1] turned out to be 29 nM; in test [2] it was 31 nM; in test [3], 393 nM. Besides, the values for the inhibition at 3 µM in test [1] (setting [4]) and in test [2] were 101% and 102%, respectively. Also, in test [3] (setting [6]), the inhibition at 10 µM was determined as 62.4%.

Take `c1cc(Nc2ccc3[nH]ncc3c2)nc(N2CCCNCC2)n1` [Example 35, N-(2-(1,4-diazepan-1-yl)pyrimidin-4-yl)-1H-indazol-5-amine]: the figures for the IC50 in test [1], in test [2] and in test [3] were 15 nM, 16 nM and 416 nM, respectively. The inhibition at 3 µM came to 98.9% in test [1] (setting [4]) and 100% in test [2]. The inhibition at 10 µM in test [3] (setting [6]) is 68.1%.

For the molecule `c1cc2[nH]ncc2cc1Nc1nc(N2CC3CCC(C2)N3)nc2c1COC2` [Example 39, 2-(3,8-diazabicyclo[3.2.1]octan-3-yl)-N-(1H-indazol-5-yl)-5,7-dihydrofuro[3,4-d]pyrimidin-4-amine], the inhibition at 0.5 µM in test [1] (setting [4]) came out at 64%; in test [2], 67%. For the same molecule, the inhibition at 1 µM in test [3] (1 μM compound, read-out: pMLC % inh A7R5 @ [conc]) worked out at 6.6%.

Regarding `CC1CN(c2nccc(Nc3ccc(-c4ccncc4)cc3)n2)CCCN1` (stereo not drawn) [Example 43, 2-(3-methyl-1,4-diazepan-1-yl)-N-(4-(pyridin-4-yl)phenyl)pyrimidin-4-amine], the inhibition at 3 µM in test [1] (setting [4]) came to 98.8%; in test [2], 99%. In addition, the IC50 in test [1] (setting [5]) was 120 nM; in test [2] (setting [5]), 135 nM; in test [3] (ppMlc (T18/S19)) it was 730 nM.

As for `CC1CCN(c2nccc(Nc3ccc(-c4ccncc4)cc3)n2)CCN1` (stereo not drawn) [Example 45, 2-(5-methyl-1,4-diazepan-1-yl)-N-(4-(pyridin-4-yl)phenyl)pyrimidin-4-amine], the inhibition at 3 µM is 98.8% in test [1] (setting [4]) and 99% in test [2]. In addition, the IC50 came to 649 nM in test [1] (setting [5]), 307 nM in test [2] (setting [5]) and 2120 nM in test [3] (ppMlc (T18/S19)).

Regarding `CC1CCN(c2nccc(Nc3ccc4[nH]ncc4c3)n2)CCN1` (stereo not drawn) [Example 57, N-(2-(5-methyl-1,4-diazepan-1-yl)pyrimidin-4-yl)-1H-indazol-5-amine], the inhibition at 3 µM was 93.4% in test [1] (setting [4]) and 17.4% in test [2]. Also, the inhibition at 10 µM in test [3] (setting [6]) amounted to 60.6%. Besides, the IC50 in test [3] (ppMlc (T18/S19)) worked out at 1220 nM.

On to `CCC1CN(c2nccc(Nc3ccc4[nH]ncc4c3)n2)CCN1` (stereo not drawn) [Example 58, N-(2-(3-ethylpiperazin-1-yl)pyrimidin-4-yl)-1H-indazol-5-amine], for which the inhibition at 3 µM was found to be 98.8% in test [1] (setting [4]) and 99% in test [2]. Also, the concentration for half-maximal inhibition (IC50) in test [1] (setting [5]) turned out to be 144 nM; in test [2] (setting [5]), 192 nM; in test [3] (ppMlc (T18/S19)), 1080 nM.

Take `CC(C)C1CN(c2nccc(Nc3ccc4[nH]ncc4c3)n2)CCN1` (stereo not drawn) [Example 59, N-(2-(3-isopropylpiperazin-1-yl)pyrimidin-4-yl)-1H-indazol-5-amine]: the inhibition at 3 µM in test [1] (setting [4]) and in test [2] was 100% in each case. The values for the IC50 in test [1] (setting [5]), in test [2] (setting [5]) and in test [3] (ppMlc (T18/S19)) were 902 nM, 671 nM and 4780 nM, respectively.

Turning to `CCC1CCN(c2nccc(Nc3ccc4[nH]ncc4c3)n2)CCN1` (stereo not drawn) [Example 60, N-(2-(5-ethyl-1,4-diazepan-1-yl)pyrimidin-4-yl)-1H-indazol-5-amine], the inhibition at 3 µM in test [1] (setting [4]) and in test [2] was 100% throughout. Also, the values for the IC50 in test [1] (setting [5]), in test [2] (setting [5]) and in test [3] (ppMlc (T18/S19)) were 450 nM, 660 nM and 3440 nM, respectively.

For `c1cc(-c2cn[nH]c2)ccc1Nc1nc(N2C3CCC2CNC3)nc2c1COC2` [Example 279, N-(4-(1H-pyrazol-4-yl)phenyl)-2-(3,8-diazabicyclo[3.2.1]octan-8-yl)-5,7-dihydrofuro[3,4-d]pyrimidin-4-amine], the IC50 in test [1] was found to be 40 nM. Further, the results for the inhibition at 0.5 µM in test [1] (setting [4]) and in test [2] were 85% and 76%, respectively.

On to `c1cc2nc(N3C4CCC3CNC4)nc(Nc3ccc4[nH]ncc4c3)c2s1` [Example 282, 2-(3,8-diazabicyclo[3.2.1]octan-8-yl)-N-(1H-indazol-5-yl)thieno[3,2-d]pyrimidin-4-amine], for which the IC50 in test [1] is below 0.1 nM. The inhibition at 0.5 µM in test [1] (setting [4]) came to 99%; in test [2], 101%.

Consider `CCOC(=O)[C@]12CCNCCC1CN(c1ncc(F)c(Nc3ccc4[nH]ncc4c3)n1)C2` (stereo partly drawn) [Example 322, Ethyl (3αR,8αR)-2-(4-((1H-indazol-5-yl)amino)-5-fluoropyrimidin-2-yl)octahydropyrrolo[3,4-d]azepine-3α(1H)-carboxylate], for which the figures for the inhibition at 0.5 µM in test [1] (setting [4]) and in test [2] were 29% and 17%, respectively.

For the molecule `CCOC(=O)[C@]12CCNCCC1CN(c1ncc(Cl)c(Nc3ccc4[nH]ncc4c3)n1)C2` (stereo partly drawn) [Example 323, Ethyl (3αR,8αR)-2-(4-((1H-indazol-5-yl)amino)-5-chloropyrimidin-2-yl)octahydropyrrolo[3,4-d]azepine-3α(1H)-carboxylate], the inhibition at 0.5 µM in test [1] (setting [4]) amounted to 29%; in test [2], 17%.

With `CCOOCC12CNCC1(C(F)(F)F)CN(c1ncc(F)c(Nc3ccc4[nH]ncc4c3)n1)C2` (stereo not drawn) [Example 328, N-(2-(3a-((ethylperoxy)methyl)-6a-(trifluoromethyl)hexahydropyrrolo[3,4-c]pyrrol-2(1H)-yl)-5-fluoropyrimidin-4-yl)-1H-indazol-5-amine], the inhibition at 0.5 µM in test [1] (setting [4]) was found to be 7%; in test [2], 8%.

Consider `CCOC(=O)C12CNCC1(C(F)(F)F)CN(c1ncc(Cl)c(Nc3ccc4[nH]ncc4c3)n1)C2` (stereo not drawn) [Example 338, Ethyl 2-(4-((1H-indazol-5-yl)amino)-5-chloropyrimidin-2-yl)-6a-(trifluoromethyl)hexahydropyrrolo[3,4-c]pyrrole-3a(1H)-carboxylate], for which the inhibition at 0.5 µM in test [1] (setting [4]) was determined as 13%; in test [2], 3%.

As to `CCOC(=O)C1NC2CC1CN(c1ncc(F)c(Nc3ccc4[nH]ncc4c3)n1)C2` (stereo not drawn) [Example 339, Ethyl 3-(4-((1H-indazol-5-yl)amino)-5-fluoropyrimidin-2-yl)-3,6-diazabicyclo[3.2.1]octane-7-carboxylate], the IC50 in test [1] came out at 211 nM. For the same molecule, the inhibition at 0.5 µM in test [1] (setting [4]) is 75%; in test [2] it was 56%.
